US8557839B2, “Fused ring azadecalin glucocorticoid receptor modulators” (Corcept Therapeutics, Inc., priority 2004, dated 2013)
pKi: −log10 of the molar value.

Key:
[1] = molecular target: T1, glucocorticoid receptors (Homo sapiens, UniProt P04150); assay: Glucocorticoid receptor binding displacement assay with 3H-dexamethasone; parameters: This GR was a full-length steroid hormone receptor; host or cells: recombinant baculovirus-infected insect cells; details: Ki from IC50 by Cheng-Prusoff; 2.5 nM 3H-dexamethasone; read-out: GR Binding
T1 sequence (P04150 1-777): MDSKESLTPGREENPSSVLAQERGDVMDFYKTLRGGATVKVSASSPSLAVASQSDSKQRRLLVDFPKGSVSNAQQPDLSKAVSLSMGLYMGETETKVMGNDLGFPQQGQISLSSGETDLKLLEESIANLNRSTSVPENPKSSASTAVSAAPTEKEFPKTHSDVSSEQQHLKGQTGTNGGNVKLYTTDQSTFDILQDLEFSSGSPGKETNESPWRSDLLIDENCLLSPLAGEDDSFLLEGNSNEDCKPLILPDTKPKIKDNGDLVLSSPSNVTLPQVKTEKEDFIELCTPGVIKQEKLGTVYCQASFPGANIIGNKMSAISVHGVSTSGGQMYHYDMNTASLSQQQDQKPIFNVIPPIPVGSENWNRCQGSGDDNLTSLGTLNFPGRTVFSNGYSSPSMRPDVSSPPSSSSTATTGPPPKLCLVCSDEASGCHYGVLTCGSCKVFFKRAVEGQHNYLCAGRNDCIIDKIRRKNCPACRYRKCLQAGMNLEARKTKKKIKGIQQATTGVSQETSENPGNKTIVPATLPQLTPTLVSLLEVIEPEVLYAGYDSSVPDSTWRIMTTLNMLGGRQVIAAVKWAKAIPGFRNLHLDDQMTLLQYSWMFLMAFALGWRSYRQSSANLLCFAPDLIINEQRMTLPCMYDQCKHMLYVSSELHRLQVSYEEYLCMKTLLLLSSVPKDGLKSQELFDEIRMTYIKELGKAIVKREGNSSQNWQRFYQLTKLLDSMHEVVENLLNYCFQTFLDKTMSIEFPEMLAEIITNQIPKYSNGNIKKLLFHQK
Description: The source of the receptor was recombinant baculovirus-infected insect cells. This GR was a full-length steroid hormone receptor likely to be associated with heat-shock and other endogenous proteins.
For the Primary Screen, test compounds were tested at 1 μM in duplicate. These compounds were diluted from 10 mM stock in 100% DMSO. After dilution to 100 μM, 5 μl were added to 245 μl assay buffer to obtained 2 μM compound and 2% DMSO.
For the IC50 determinations, test compounds were tested at 6 concentrations in duplicate (concentration range depends on % inhibition binding that was obtained in the Primary Screen). Test compounds were diluted from 10 mM stock in 100% DMSO. The tested solutions were prepared at 2× final assay concentration in 2% DMSO/assay buffer.
All reagents and the assay plate were kept on ice during the addition of reagents. […] After the additions, the incubation mixture was mixed and incubated for 2.5 hrs at 4° C.
After 2.5 hrs incubation, unbound counts were removed with dextran coated charcoal (DCC) as follows: 25 μl of DCC solution (10% DCC in assay buffer) was added to all wells and mixed (total volume 225 μl). The plate was centrifuged at 4000 rpm for 10 minutes at 4° C. 75 μl of the supernatants (i.e.⅓ of total volume) was carefully pipetted into an optiplate. 200 μl of scintillation cocktail were added (Microscint-40, Packard Bioscience. B.V.). The plate was vigorously shaken for approx. 10 minutes and counted on Topcount.
The IC50 values were converted to Ki (the inhibition constant) using the Cheng-Prusoff equation.
Reagents: Assay buffer: 10 mM potassium phosphate buffer pH 7.6 containing 5 mM DTT, 10 mM sodium molybdate, 100 μM EDTA and 0.1% BSA.

[2] = molecular target: T1, glucocorticoid receptors; assay: GR functional assay using SW1353/MMTV-5 cells (dexamethasone-induced luciferase); format: cell-based; parameters: contains endogenous glucocorticoid receptors; endogenous in cells; host or cells: SW1353/MMTV-5 (human chondrosarcoma, stably carrying the pMAMneo-Luc reporter); details: read-out: GR Functional
Description: SW1353/MMTV-5 is an adherent human chondrosarcoma cell line that contains endogenous glucocorticoid receptors. It was transfected with a plasmid (pMAMneo-Luc) encoding firefly luciferase located behind a glucocorticoid-responsive element (GRE) derived from a viral promoter (long terminal repeat of mouse mammary tumor virus). A stable cell line SW1353/MMTV-5 was selected with geneticin, which was required to maintain this plasmid.
SW1353/MMTV-5 cells were distributed in 96-well plates and incubated in medium (without geneticin) for 24 hrs (in the absence of CO2).

[3] = SW1353/MMTV-5 cells, antagonism of 50 nM dexamethasone, luciferase

SMILES | pKi [1] | pKi [2, 3] | pKi [2]
O=S(=O)(c1ccc(N2CCOCC2)cc1)N1CCC2=Cc3[nH]ncc3CC2(Cc2ccccc2)C1 (stereo not drawn) [drawing 230] | > 8.00 | < 7.00 | 
CC(C)(C)c1ccc(S(=O)(=O)N2CCC3=Cc4c(cnn4-c4ccc(F)cc4)C[C@]3(COCCC#N)C2)cc1 | > 8.00 |  | > 8.00
CCCCn1ncc2c1C=C1CCN(S(=O)(=O)c3ccc(C(C)(C)C)cc3)C[C@@]1(CN1CCCCC1)C2 | > 8.00 |  | 7.00 to 8.00
COc1ccc(CC23Cc4cnn(-c5ccc(F)cc5)c4C=C2CCN(Cc2ccccc2)C3)cc1 (stereo not drawn) [drawing 260] | > 8.00 | < 7.00 | 
CC(C)(C)S(=O)(=O)N1CCC2=Cc3c(cnn3-c3ccc(F)cc3)C[C@]2(C)C1 | < 7.00 |  | < 7.00
COCCOC[C@]12Cc3cnn(-c4ccc(F)cc4)c3C[C@@H]1CCN(S(=O)(=O)c1ccc(C(C)(C)C)cc1)C2 | > 8.00 |  | > 8.00
CC(C)(C)c1ccc(S(=O)(=O)N2CCC3=Cc4c(cnn4-c4ccc(F)cc4)C[C@]3(C(=O)N3CCCC3)C2)cc1 | > 8.00 |  | 7.00 to 8.00
O=S(=O)(c1ccc(N2CCOCC2)nc1)N1CCC2=Cc3c(cnn3-c3ccc(F)cc3)CC2(Cc2ccc(F)cc2)C1 (stereo not drawn) | > 8.00 |  | 7.00 to 8.00
O=S(=O)(c1ccccc1)N1CCC2=Cc3c(cnn3-c3ccc(F)cc3)C[C@]2(COCCO)C1 | > 8.00 |  | 7.00 to 8.00
Cc1ccccc1S(=O)(=O)N1CCC2=Cc3c(cnn3-c3ccc(F)cc3)C[C@]2(CN2CCOCC2)C1 | > 8.00 |  | 7.00 to 8.00
O=S(=O)(c1ccc(F)cc1)N1CCC2=Cc3c(cnn3-c3ccc(F)cc3)C[C@]2(CO)C1 | > 8.00 |  | < 7.00
CC(C)(C)c1ccc(S(=O)(=O)N2CCC3=Cc4c(cnn4-c4ccc(F)cc4)CC3(Cc3ccccc3)C2)cc1 (stereo not drawn) [drawing 233] | > 8.00 |  | 7.00 to 8.00
COCCOC[C@]12Cc3cnn(-c4ccc(F)cc4)c3C=C1CCN(S(=O)(=O)c1ccc(F)cc1)C2 | > 8.00 |  | > 8.00
CC(C)(C)c1ccc(S(=O)(=O)N2CCC3=Cc4c(cnn4-c4ccc(C#N)cc4)CC3(Cc3ccccc3)C2)cc1 (stereo not drawn) [drawing 239] | > 8.00 |  | 7.00 to 8.00
CCNC(=O)[C@]12Cc3cnn(-c4ccc(F)cc4)c3C=C1CCN(S(=O)(=O)c1ccc(C(C)(C)C)cc1)C2 | > 8.00 |  | < 7.00
CC(C)(C)c1ccc(S(=O)(=O)N2CCC3=Cc4c(cnn4Cc4cccc(O)c4)CC3(Cc3ccccc3)C2)cc1 (stereo not drawn) [drawing 241] | < 7.00 |  | < 7.00
CC(C)(C)c1ccc(S(=O)(=O)N2CCC3=Cc4c(cnn4-c4ccc(C(F)(F)F)cc4)CC3(Cc3ccccc3)C2)cc1 (stereo not drawn) [drawing 238] | 7.00 to 8.00 |  | 
COC[C@]12Cc3cnn(-c4ccc(F)cc4)c3C=C1CCN(S(=O)(=O)c1ccccc1)C2 | > 8.00 |  | 7.00 to 8.00
COCC[C@]12Cc3cnn(-c4ccc(F)cc4)c3C=C1CCN(S(=O)(=O)c1ccc(C(C)(C)C)cc1)C2 | > 8.00 |  | > 8.00
CN(C)C(=O)[C@]12Cc3cnn(-c4ccc(F)cc4)c3C=C1CCN(S(=O)(=O)c1ccc(C(C)(C)C)cc1)C2 | 7.00 to 8.00 |  | < 7.00
CCCCn1ncc2c1C=C1CCN(S(=O)(=O)c3ccc(C)cc3)C[C@@]1(COC)C2 | 7.00 to 8.00 |  | < 7.00
CC(C)(C)c1ccc(S(=O)(=O)N2CCC3=Cc4c(cnn4-c4ccc(F)cc4)C[C@]3(C(=O)N3CCOCC3)C2)cc1 | 7.00 to 8.00 |  | < 7.00
CCOC[C@]12Cc3cnn(-c4ccc(F)cc4)c3C=C1CCN(S(=O)(=O)c1ccc(C(C)(C)C)cc1)C2 | > 8.00 |  | > 8.00
COC(=O)[C@]12Cc3cnn(C(C)C)c3C=C1CCN(S(=O)(=O)c1ccc(C(C)(C)C)cc1)C2 | 7.00 to 8.00 |  | < 7.00

SMILES | pKi [1] | pKi [2, 3] | pKi [2]
O=S(=O)(c1ccccc1)N1CCC2=Cc3c(cnn3-c3ccc(F)cc3)CC2(Cc2ccc(F)cc2)C1 (stereo not drawn) | > 8.00 |  | 7.00 to 8.00
CS(=O)(=O)N1CCC2=Cc3c(cnn3-c3ccc(F)cc3)CC2(Cc2ccc(F)cc2)C1 (stereo not drawn) | 7.00 to 8.00 |  | < 7.00
CC(C)(C)c1ccc(S(=O)(=O)N2CCC3=Cc4c(cnn4-c4ccc(F)cc4)C[C@]3(C(O)c3ccccc3)C2)cc1 (stereo partly drawn) | 7.00 to 8.00 |  | < 7.00
Cc1ccc(S(=O)(=O)N2CCC3=Cc4c(cnn4-c4ccc(F)cc4)C[C@]3(CO)C2)cc1 | > 8.00 |  | 7.00 to 8.00
Cc1ccc(S(=O)(=O)N2CCC3=Cc4c(cnn4-c4ccc(F)cc4)C[C@]3(CN(C)C)C2)cc1 | > 8.00 |  | 7.00 to 8.00
CCCCS(=O)(=O)N1CCC2=Cc3c(cnn3-c3ccc(F)cc3)C[C@]2(CN2CCOCC2)C1 | 7.00 to 8.00 |  | < 7.00
COCCOC[C@]12Cc3cnn(-c4ccc(F)cc4)c3C=C1CCN(S(=O)(=O)c1ccc(C(C)(C)C)cc1)C2 | > 8.00 |  | > 8.00
COC[C@]12Cc3cnn(-c4ccc(F)cc4)c3C=C1CCN(S(=O)(=O)N(C)C)C2 | 7.00 to 8.00 |  | < 7.00
CC(C)(C)c1ccc(S(=O)(=O)N2CCC3=Cc4c(cnn4-c4ccc(S(N)(=O)=O)cc4)CC3(Cc3ccccc3)C2)cc1 (stereo not drawn) [drawing 256] | 7.00 to 8.00 | < 7.00 | 
CC(C)(C)c1ccc(S(=O)(=O)N2CCC3=Cc4[nH]ncc4CC3(Cc3ccccc3)C2)cc1 (stereo not drawn) [drawing 229] | > 8.00 | 7.00 to 8.00 | 
CCCCn1ncc2c1C=C1CCN(S(=O)(=O)c3ccc(C(C)(C)C)cc3)C[C@@]1(CN(C)C)C2 | 7.00 to 8.00 |  | < 7.00
CC(C)(C)c1ccc(S(=O)(=O)N2CCC3=Cc4[nH]ncc4CC3(Cc3ccccc3)C2)cc1 (stereo not drawn) [drawing 245] | > 8.00 |  | 7.00 to 8.00
CC(C)n1ncc2c1C=C1CCN(S(=O)(=O)c3ccc(C(C)(C)C)cc3)C[C@@]1(CN(C)C)C2 | 7.00 to 8.00 |  | < 7.00
CC(C)(C)c1ccc(S(=O)(=O)N2CCC3=Cc4c(cnn4-c4ccc(F)cc4)C[C@]3(CO)C2)cc1 | > 8.00 |  | 7.00 to 8.00
CC(O)[C@]12Cc3cnn(-c4ccc(F)cc4)c3C=C1CCN(S(=O)(=O)c1ccc(C(C)(C)C)cc1)C2 (stereo partly drawn) | > 8.00 |  | 7.00 to 8.00
CCCCn1ncc2c1C=C1CCN(S(=O)(=O)c3ccc(C)cc3)C[C@@]1(CN1CCCCC1)C2 | 7.00 to 8.00 |  | 
COC[C@]12Cc3cnn(-c4ccc(F)cc4)c3C[C@@H]1CCN(S(=O)(=O)c1ccccc1)C2 | 7.00 to 8.00 |  | < 7.00
CC(C)(C)c1ccc(S(=O)(=O)N2CCC3=Cc4c(cnn4-c4ccc(F)cc4)C[C@]3(COCCN3CCOCC3)C2)cc1 | 7.00 to 8.00 |  | < 7.00
CC(C)(C)c1ccc(S(=O)(=O)N2CCC3=Cc4c(cnn4Cc4cccc(O)c4)CC3(Cc3ccccc3)C2)cc1 (stereo not drawn) [drawing 257] | < 7.00 |  | 
O=S(=O)(c1ccccc1)N1CCC2=Cc3c(cnn3-c3ccc(F)cc3)C[C@]2(CO)C1 | 7.00 to 8.00 |  | 
O=S(=O)(c1ccccn1)N1CCC2=Cc3c(cnn3-c3ccc(F)cc3)C[C@]2(CN2CCOCC2)C1 | > 8.00 |  | 
CC(C)(C)c1ccc(S(=O)(=O)N2CCC3=Cc4c(cnn4-c4ccc(C(F)(F)F)cc4)CC3(Cc3ccccc3)C2)cc1 (stereo not drawn) [drawing 254] | 7.00 to 8.00 |  | 
CC(C)(C)c1ccc(S(=O)(=O)N2CCC3=Cc4c(cnn4-c4ccccn4)C[C@]3(C)C2)cc1 | 7.00 to 8.00 |  | 
